Biological target: Recombinant human factor D (Homo sapiens (Human), UniProt P00746)
Experiment: Human Complement Factor D Assay: Method 1
Format: biochemical
Conditions: recombinant human factor D 10 nM; substrate Z-Lys-thiobenzyl; fluorescence readout; read-out: IC50 (μM), Factor D inhibition using Method 1
Description: Human Complement Factor D Assay: Method 1
Recombinant human factor D (expressed in E. coli and purified using standard methods) at 10 nM concentration is incubated with test compound at various concentrations for 1 hour at room temperature in 0.1 M Hepes buffer, pH 7.5, containing 1 mM MgCl2, 1 M NaCl and 0.05% CHAPS. A synthetic substrate Z-Lys-thiobenzyl and 2,4-dinitrobenzenesulfonyl-fluoresceine are added to final concentrations of 200 μM and 25 μM, respectively. The increase in fluorescence is recorded at excitation of 485 nm and emission at 535 nm in a microplate spectrofluorimeter. IC50 values are calculated from percentage of inhibition of complement factor D-activity as a function of test compound concentration.

Sequence of Recombinant human factor D (P00746 26-253): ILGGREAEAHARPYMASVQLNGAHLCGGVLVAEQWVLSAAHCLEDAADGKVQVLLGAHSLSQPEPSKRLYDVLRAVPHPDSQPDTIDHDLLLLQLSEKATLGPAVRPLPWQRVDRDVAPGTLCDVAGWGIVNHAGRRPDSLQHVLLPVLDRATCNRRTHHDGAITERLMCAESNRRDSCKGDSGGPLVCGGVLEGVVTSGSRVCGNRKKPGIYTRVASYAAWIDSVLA

| Structure (SMILES) | IC50 [µM] |
| --- | --- |
| NC(=O)c1nn(CC(=O)N2[C@@H]3C[C@@H]3C[C@H]2C(=O)Nc2ccn(CC(F)(F)F)n2)c2ccccc12 [Example 1, 1-(2-oxo-2-((1R,3S,5R)-3-(1-(2,2,2-trifluoroethyl)-1H-pyrazol-3-ylcarbamoyl)-2-azabicyclo[3.1.0]hexan-2-yl)ethyl)-1H-indazole-3-carboxamide] | 0.064 |
| CC(C)n1ccc(NC(=O)[C@@H]2C[C@H]3C[C@H]3N2C(=O)Cn2nc(C(N)=O)c3ccccc32)n1 [Example 4, 1-(2-((1R,3S,5R)-3-(1-isopropyl-1H-pyrazol-3-ylcarbamoyl)-2-azabicyclo[3.1.0]hexan-2-yl)-2-oxoethyl)-1H-indazole-3-carboxamide] | 0.17 |

More lines, now with the values ahead:

| IC50 [µM] | Structure (SMILES) |
| --- | --- |
| 0.083 | CC(=O)c1nn(CC(=O)N2[C@@H]3C[C@@H]3C[C@H]2C(=O)Nc2ccn(CC(F)(F)F)n2)c2cnccc12 [Example 3, (1R,3S,5R)-2-(2-(3-acetyl-1H-pyrazolo[3,4-c]pyridin-1-yl)acetyl)-N-(1-(2,2,2-trifluoroethyl)-1 H-pyrazol-3-yl)-2-azabicyclo[3.1.0] hexane-3-carboxamide] |
| 0.032 | NC(=O)n1cc(NC(=O)N2[C@@H]3C[C@@H]3C[C@H]2C(=O)Nc2ccn(CC(F)(F)F)n2)c2ccccc21 [Example 5, (1R,3S,5R)—N2-(1-carbamoyl-1H-indol-3-yl)-N3-(1-(2,2,2-trifluoroethyl)-1H-pyrazol-3-yl)-2-azabicyclo[3.1.0]hexane-2,3-dicarboxamide] |
| 0.098 | NC(=O)c1nn(CC(=O)N2[C@@H]3C[C@@H]3C[C@H]2C(=O)Nc2ccn(CC(F)(F)F)n2)c2cnccc12 [Example 2, 1-(2-oxo-2-((1R,3S,5R)-3-((1-(2,2,2-trifluoroethyl)-1H-pyrazol-3-yl)carbamoyl)-2-azabicyclo[3.1.0]hexan-2-yl)ethyl)-1H-pyrazolo[3,4-c]pyridine-3-carboxamide] |

— patent publication US9550755B2, “Complement pathway modulators and uses thereof” (NOVARTIS AG, priority 2012, dated 2017)
